Data published in patent US20210387968A1, “HETEROARYLMETHYLENE DERIVATIVES AS DNA POLYMERASE THETA INHIBITORS” (IDEAYA Biosciences, Inc., priority 2019, published 2021).

target: T1, Pol theta polymerase domain (residues 1819-2590) (Homo sapiens, UniProt O75417); experiment: Pol theta polymerase primer extension assay (molecular beacon fluorescence); type: biochemical; conditions: 4 nM enzyme, 15 min pre-incubation, fluorescence change over 30 min
T1 construct: Pol theta polymerase domain (residues 1819-2590) at a final concentration of 4 nM
T1 sequence (O75417 1819-2590): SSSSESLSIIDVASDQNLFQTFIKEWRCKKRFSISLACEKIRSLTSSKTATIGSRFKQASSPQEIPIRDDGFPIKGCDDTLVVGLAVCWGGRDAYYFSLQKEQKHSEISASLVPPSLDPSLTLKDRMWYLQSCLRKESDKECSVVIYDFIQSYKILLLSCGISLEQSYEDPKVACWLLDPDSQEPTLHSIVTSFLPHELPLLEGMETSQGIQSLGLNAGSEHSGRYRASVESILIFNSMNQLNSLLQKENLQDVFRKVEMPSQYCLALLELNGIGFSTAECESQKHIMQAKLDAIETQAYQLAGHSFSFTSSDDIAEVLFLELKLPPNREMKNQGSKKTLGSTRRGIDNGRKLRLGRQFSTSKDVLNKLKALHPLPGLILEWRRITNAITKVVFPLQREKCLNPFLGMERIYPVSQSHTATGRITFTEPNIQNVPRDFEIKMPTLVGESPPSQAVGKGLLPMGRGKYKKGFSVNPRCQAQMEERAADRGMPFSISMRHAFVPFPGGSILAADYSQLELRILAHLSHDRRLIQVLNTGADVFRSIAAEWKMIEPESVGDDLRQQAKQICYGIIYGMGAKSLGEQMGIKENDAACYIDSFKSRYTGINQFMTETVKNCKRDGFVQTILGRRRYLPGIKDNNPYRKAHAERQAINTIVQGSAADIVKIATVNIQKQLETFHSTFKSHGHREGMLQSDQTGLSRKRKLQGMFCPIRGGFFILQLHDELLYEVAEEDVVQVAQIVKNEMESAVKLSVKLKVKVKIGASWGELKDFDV
Method: The ability of the compounds of Formula (I) to inhibit polymerase activity of Pol theta was determined using the assay described below.
A mixture of 20 uL of Pol theta polymerase domain (residues 1819-2590) at a final concentration of 4 nM in assay buffer (20 m M TRIS, pH 7.80, 50 mM KCl, 10 mM MgCl2, 1 mM DTT, 0.01% BSA, 0.01% Tween20) was added to test compounds (11-point dilution series of test compounds) except the low control wells without test compounds. The above enzyme and test compound inhibitor mixture was then incubated at room temperature for 15 min. An equal volume (20 μl) of dNTP substrate mix (48 μM) and primed molecular beacon DNA (obtained by annealing template SEQ ID NO 2: (5′-CCTTCCTCCCGTGTCTTG-TACCTTCCCGTCA-GGAGGAAGG-3′) with 5′-TAMRA and 3′-BHQ and primer DNA (SEQ ID NO 3: 5′-GACGGGAAGG-3′) in 10 mM Tris-HCl pH 8.0, 100 mM NaCl buffer) (96 nM) in assay buffer was added to all the test wells. The inhibition activity was measured by monitoring the fluorescence change over 30 min at 535 nm upon excitation at 485 nm. The high control (DMSO with enzyme) with high fluorescence intensity represents no inhibition of polymerase reaction while the low control (DMSO with buffer) with low fluorescence intensity represents full inhibition of polymerase activity. Slope of the reaction progress curves were used to calculate the rate of polymerization. The rates were used to determine the percent inhibition using a four-parameter inhibition model to generate IC50, Hill slope and max inhibition.

`N#Cc1c(C(F)(F)F)cc(C(F)(F)F)nc1NCc1nccn1Cc1ccc(F)cc1` [compound 7, 2-[([1-[(4-fluorophenyl)methyl]-1H-imidazol-2-yl]methyl)amino]-4,6-bis-(trifluoromethyl)pyridine-3-carbonitrile] and `N#Cc1c(C(F)(F)F)cc(C(F)(F)F)nc1NCc1nc(O)ccc1-c1ccc(F)cc1` [compound 23, 2-([[3-(4-fluorophenyl)-6-oxo-1H-pyridin-2-yl]methyl]amino)-4,6-bis(trifluoro-methyl)pyridine-3-carbonitrile] cannot be ordered by IC50: under 200 nM for the first, under 200 nM for the second.

`N#Cc1c(C(F)(F)F)cc(C(F)(F)F)nc1NCc1nccnc1-c1ccc(F)cc1` [compound 10, 2-((3-(4-fluorophenyl)pyrazin-2-yl)methylamino)-4,6-bis(trifluoromethyl)-nicotinonitrile] and `N#Cc1c(C(F)(F)F)cc(C(F)(F)F)nc1OCc1ncccc1-c1ccc(F)cc1` [compound 19, 2-[[3-(4-fluorophenyl)pyridin-2-yl]methoxy]-4,6-bis(trifluoromethyl)pyridine-3-carbonitrile] cannot be ordered by IC50: under 200 nM for the first, under 200 nM for the second.

First: N#Cc1c(C(F)(F)F)cc(C(F)(F)F)nc1NCc1ncnn1-c1ccc(F)cc1 [compound 26, 2-(((1-(4-fluorophenyl)-1H-1,2,4-triazol-5-yl)methyl)amino)-4,6-bis(trifluoro-methyl)nicotinonitrile]
Second: 2-([[1-(4-fluorophenyl)-4- (trifluoromethyl)imidazol-2- yl]methyl]amino)-4,6- bis(trifluoromethyl)benzonitrile [compound 9]
The IC50 of the first is higher: 200 to 500 nM for the first, under 200 nM for the second.

First: Cc1nc(NCc2nccn2-c2ccccc2)c(C#N)c(C)c1Cl [compound 2, 5-chloro-4,6-dimethyl-2-((1-phenyl-1H-imidazol-2-yl)methylamino)-nicotinonitrile]
Second: Cn1cc(-c2ccc(F)cc2)c(CNc2nc(C(F)(F)F)cc(C(F)(F)F)c2C#N)n1 [compound 14, 2-(((4-(4-fluorophenyl)-1-methyl-1H-pyrazol-3-yl)methyl)amino)-4,6-bis(trifluoromethyl)nicotinonitrile]
The IC50 of the first is lower: under 200 nM for the first, 1000 to 10000 nM for the second. The first is the more potent here.

`Cc1nc(OCc2nccn2-c2ccccc2)c(C#N)c(C)c1Cl` [compound 1, 5-chloro-4,6-dimethyl-2-((1-phenyl-1H-imidazol-2-yl)methoxy)-nicotinonitrile] and `N#Cc1c(C(F)(F)F)cc(C(F)(F)F)nc1NCc1nccnc1-c1ccc(F)cc1Cl` [compound 17, 2-([[3-(2-chloro-4-fluorophenyl)-pyrazin-2-yl]methyl]amino)-4,6-bis(trifluoromethyl)pyridine-3-carbonitrile] fall in the same range of IC50: 500 to 1000 nM for the first, 500 to 1000 nM for the second.

`CC(Nc1nc(C(F)(F)F)cc(C(F)(F)F)c1C#N)c1nccn1-c1ccc(F)cc1` (stereo not drawn) [compound 13, 2-([1-[1-(4-fluorophenyl)imidazol-2-yl]ethyl]amino)-4,6-bis(trifluoromethyl)pyridine-3-carbonitrile] and `N#Cc1c(C(F)(F)F)cc(C(F)(F)F)nc1NCc1nccn1-c1ccc(F)cc1` [compound 5, 2-([[1-(4-fluorophenyl)-1H-imidazol-2-yl]methyl]amino)-4,6-bis(trifluoromethyl)-pyridine-3-carbonitrile] cannot be ordered by IC50: under 200 nM for the first, under 200 nM for the second.

Compared with `COc1ccc(-c2ccc(F)cc2)c(CNc2nc(C(F)(F)F)cc(C(F)(F)F)c2C#N)n1` [compound 27, 2-([[3-(4-fluorophenyl)-6-methoxypyridin-2-yl]methyl]amino)-4,6-bis(trifluoromethyl)pyridine-3-carbonitrile], `N#Cc1c(C(F)(F)F)cc(C(F)(F)F)nc1NCc1ncccc1-c1ccc(F)cc1` [compound 16, 2-(((3-(4-fluorophenyl)pyridin-2-yl)methyl)amino)-4,6-bis(trifluoromethyl)-nicotinonitrile] is lower in IC50: 1000 to 10000 nM for the first, under 200 nM for the second.

First: N#Cc1c(C(F)(F)F)cc(C(F)(F)F)nc1NCc1nccnc1-c1ccccn1 [compound 21, 2-(((3-(pyridin-2-yl)pyrazin-2-yl)methyl)amino)-4,6-bis(trifluoromethyl)-nicotinonitrile]
Second: N#Cc1c(C(F)(F)F)cc(C(F)(F)F)nc1NCc1n[nH]cc1-c1ccc(F)cc1 [compound 15, 2-(((4-(4-fluorophenyl)-1H-pyrazol-3-yl)methyl)amino)-4,6-bis(trifluoromethyl)-nicotinonitrile]
The IC50 of the first is lower: 200 to 500 nM for the first, 1000 to 10000 nM for the second. The first is the more potent here.

`COc1ccc(-n2ccnc2CNc2nc(C(F)(F)F)cc(C(F)(F)F)c2C#N)cc1` [compound 6, 2-([[1-(4-methoxyphenyl)-1H-imidazol-2-yl]methyl]amino)-4,6-bis(trifluoromethyl)-pyridine-3-carbonitrile] and `N#Cc1c(C(F)(F)F)cc(C(F)(F)F)nc1NCc1nncn1-c1ccc(F)cc1` [compound 12, 2-((4-(4-fluorophenyl)-4H-1,2,4-triazol-3-yl)methylamino)-4,6-bis(trifluoromethyl)-nicotinonitrile] cannot be ordered by IC50: under 200 nM for the first, under 200 nM for the second.

`N#Cc1c(C(F)(F)F)cc(C(F)(F)F)nc1NCc1ncccc1-c1ccccn1` [compound 22] and `N#Cc1ccc(-c2ccc(F)cc2)c(CNc2nc(C(F)(F)F)cc(C(F)(F)F)c2C#N)n1` [compound 24, 6-([[3-cyano-4,6-bis(trifluoromethyl)pyridin-2-yl]amino]methyl)-5-(4-fluorophenyl)pyridine-2-carbonitrile] cannot be ordered by IC50: under 200 nM for the first, under 200 nM for the second.

`N#Cc1c(C(F)(F)F)cc(C(F)(F)F)nc1OCc1nccn1-c1ccc(F)cc1` [compound 8, 2-[[1-(4-fluorophenyl)-1H-imidazol-2-yl]methoxy]-4,6-bis(trifluoromethyl)-pyridine-3-carbonitrile] and `Fc1ccc(-n2ccnc2CNc2cc(Cl)cc(C(F)(F)F)c2)cc1` [compound 4, 3-chloro-N-((1-(4-fluorophenyl)-1H-imidazol-2-yl)methyl)-5-(trifluoromethyl)-benzenamine] cannot be ordered by IC50: under 200 nM for the first, under 200 nM for the second.

`Cc1nc(NCc2nccn2-c2ccc(F)cc2)c(C#N)c(C)c1Cl` [compound 3, 5-chloro-2-(((1-(4-fluorophenyl)-1H-imidazol-2-yl)methyl)amino)-4,6-dimethyl-nicotinonitrile] and `N#Cc1c(C(F)(F)F)cc(C(F)(F)F)nc1NCc1ncccc1-c1ccc(Br)cc1` [compound 25, 2-([[3-(4-bromophenyl)pyridin-2-yl]methyl]amino)-4,6-bis(trifluoromethyl)-pyridine-3-carbonitrile] cannot be ordered by IC50: under 200 nM for the first, under 200 nM for the second.

First: N#Cc1c(C(F)(F)F)cc(C(F)(F)F)nc1NCc1ncncc1-c1ccc(F)cc1 [compound 11, 2-((5-(4-fluorophenyl)pyrimidin-4-yl)methylamino)-4,6-bis(trifluoromethyl)-nicotinonitrile]
Second: N#Cc1c(C(F)(F)F)cc(C(F)(F)F)nc1NCc1ncncc1-c1ccncc1 [compound 18, 2-([[5-(pyridin-4-yl)pyrimidin-4-yl]methyl]amino)-4,6-bis(trifluoro-methyl)pyridine-3-carbonitrile]
The IC50 of the first is lower: under 200 nM for the first, 1000 to 10000 nM for the second. The first is the more potent here.

Work on `Cc1ccc(-c2ccc(F)cc2)c(CNc2nc(C(F)(F)F)cc(C(F)(F)F)c2C#N)n1` [compound 20, 2-([[3-(4-fluorophenyl)-6-methylpyridin-2-yl]methyl]amino)-4,6-bis(trifluoromethyl)pyridine-3-carbonitrile] yielded an IC50 of under 200 nM.
